Measurements reported in US20110130365A1, “Fluorinated Heteroaryls” (priority 2008, published 2011).
Structures can show the parent of a compound that is named as a salt.

Biological target: T1, Full-length glucokinase (beta cell isoform) (Homo sapiens, UniProt P35557)
T1 construct: Full-length glucokinase (beta cell isoform) was His-tagged at N-terminus; His tag (N); made in house
T1 sequence (P35557 1-465): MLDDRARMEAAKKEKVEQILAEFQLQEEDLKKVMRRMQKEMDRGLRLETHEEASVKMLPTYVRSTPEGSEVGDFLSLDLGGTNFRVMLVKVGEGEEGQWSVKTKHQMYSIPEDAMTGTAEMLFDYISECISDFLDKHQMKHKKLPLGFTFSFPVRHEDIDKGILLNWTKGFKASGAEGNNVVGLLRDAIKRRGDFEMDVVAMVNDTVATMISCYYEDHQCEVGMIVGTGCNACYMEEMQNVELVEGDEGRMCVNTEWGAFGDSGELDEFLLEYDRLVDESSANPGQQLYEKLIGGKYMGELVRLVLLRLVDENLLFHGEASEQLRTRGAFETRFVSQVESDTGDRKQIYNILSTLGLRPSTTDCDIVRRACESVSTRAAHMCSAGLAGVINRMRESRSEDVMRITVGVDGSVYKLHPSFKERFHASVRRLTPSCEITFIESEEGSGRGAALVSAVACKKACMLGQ
Assay: Glucokinase activation assay (PK/LDH-coupled, NADH depletion at 340 nm)
Assay type: biochemical
Details: 5 mM glucose, 2.5 mM ATP, pH 7.1, room temperature, values given as a range where N>1; for Emax: fitted % max activation, read-out: Maximum Activation
Procedure: Full-length glucokinase (beta cell isoform) was His-tagged at N-terminus and purified by a Ni column followed by size exclusion chromatography. A 320 mL column was packed in house using Pharmacia Superdex75 preparation grade resin. Glucose was obtained from Calbiochem (San Diego, Calif.) and other reagents were purchased from Sigma (St. Louis, Mo.).
All assays were performed in a Corning 384-well plate using Spectramax PLUS spectrophotometer (Molecular Devices, Sunnyvale, Calif.) at room temperature. The final assay volume was 40 μL. The buffer conditions used in this assay were as follows: 50 mM HEPES, 5 mM glucose, 2.5 mM ATP, 3.5 mM MgCl2, 0.7 mM NADH, 2 mM dithiothreitol, 1 Unit/mL PK/LDH, 0.2 mM phosphoenolpyruvate, and 25 mM KCl. The buffer pH was 7.1. The test compound in DMSO solution was added to the buffer and mixed by a plate shaker for 7.5 minutes. The final concentration of DMSO introduced into the assay was 0.25%.
Glucokinase was added to the buffer mixture to initiate the reaction in the presence and absence of compound. The reaction was monitored by absorbance at 340 nm due to the depletion of NADH. The initial reaction velocity was measured by the slope of a linear time course of 0-300 seconds. The percentage of activation was calculated by the following equation:
% Activation=(Va/Vo−1)×100;
wherein each of Va and Vo is defined as the initial reaction velocity in the presence and absence of the tested compound, respectively.
To determine the EC50 (half maximal effective concentration) and % maximum activation, compounds were serially diluted in DMSO by 3-fold. The GK activities were measured as a function of compound concentrations. The data were fitted to the equation below to obtain the EC50 and % max activation values:
Va/Vo=1+(% max activation/100)/(1+EC50/compound concentration)

Compound	Emax [%]	EC50 [µM]
O=C(O)c1ccc(NC(=O)[C@H](CC2CCCC2)n2cc(C(F)(F)F)ccc2=O)nc1 [Example 28, (S)-6-(3-cyclopentyl-2-(2-oxo-5-(trifluoromethyl)pyridin-1(2H)-yl)propanamido)nicotinic acid mono acetic acid salt]	147	0.5
CCOP(=O)(Cc1cnc(NC(=O)[C@H](CC2CCCC2)n2cc(C(F)(F)F)ccc2=O)cn1)OCC [Example 29, (S)-diethyl (5-(3-cyclopentyl-2-(2-oxo-5-(trifluoromethyl)pyridin-1(2H)-yl)propanamido)-pyrazin-2-yl)methylphosphonate]	141	5.7
O=C(Nc1ccn(Cc2ccccc2)n1)[C@H](CC1CCCC1)n1ccc(C(F)(F)F)cc1=O [Example 30, (S)—N-(1-benzyl-1H-pyrazol-3-yl)-3-cyclopentyl-2-(2-oxo-4-(trifluoromethyl)pyridin-1(2H)-yl)propanamide]	58	4.2
CC(C)(O)Cn1ccc(NC(=O)[C@H](CC2CCCC2)n2cc(C(F)(F)F)ccc2=O)n1 [Example 31, (S)-3-cyclopentyl-N-(1-(2-hydroxy-2-methylpropyl)-1H-pyrazol-3-yl)-2-(2-oxo-5-(trifluoromethyl)pyridin-1(2H)-yl)propanamide]	172 to 194	1.1 to 2
CC(C)(O)Cn1ccc(NC(=O)[C@H](CC2CCCC2)n2ccc(C(F)(F)F)cc2=O)n1 [Example 32, (S)-3-cyclopentyl-N-(1-(2-hydroxy-2-methylpropyl)-1H-pyrazol-3-yl)-2-(2-oxo-4-(trifluoromethyl)pyridin-1(2H)-yl)propanamide]	87 to 90	6.9 to 7.5
O=C(Nc1ccc(CO)cn1)[C@H](CC1CCCC1)n1cc(C(F)(F)F)ccc1=O [Example 33, (S)-3-cyclopentyl-N-(5-(hydroxymethyl)pyridin-2-yl)-2-(2-oxo-5-(trifluoromethyl)pyridin-1(2H)-yl)propanamide]	85 to 159	0.3 to 0.5
O=C(O)c1ccc(NC(=O)[C@H](CC2CCCC2)n2ccc(C(F)(F)F)cc2=O)nc1 [Example 34, (S)-6-(3-cyclopentyl-2-(2-oxo-4-(trifluoromethyl)pyridin-1(2H)-yl)propanamido)nicotinic acid]	100 to 102	1.8 to 2.7
Cc1cnc(NC(=O)[C@H](CC2CCCC2)n2cnc(C(F)F)cc2=O)cn1 [Example 35, (S)-3-cyclopentyl-2-(4-(difluoromethyl)-6-oxopyrimidin-1(6H)-yl)-N-(5-methylpyrazin-2-yl)propanamide]	144	45
Cc1ccc(NC(=O)[C@H](CC2CCCC2)n2cnc(C(F)F)cc2=O)nc1 [Example 36, (S)-3-cyclopentyl-2-(4-(difluoromethyl)-6-oxopyrimidin-1(6H)-yl)-N-(5-methylpyridin-2-yl)propanamide]	106	8.1
O=C(O)c1ccc(NC(=O)[C@H](CC2CCCCC2)n2ccc(C(F)(F)F)cc2=O)nc1 [Example 37, (S)-6-(3-cyclohexyl-2-(2-oxo-4-(trifluoromethyl)pyridin-1(2H)-yl)propanamido)nicotinic acid]	92 to 101	1.5 to 3.5
Cc1ccc(NC(=O)[C@H](CC2CCOCC2)n2cc(C(F)(F)F)ccc2=O)nc1 [Example 38, (S)—N-(5-methylpyridin-2-yl)-2-(2-oxo-5-(trifluoromethyl)pyridin-1(2H)-yl)-3-(tetrahydro-2H-pyran-4-yl)propanamide]	57 to 70	2.9 to 4.6
Cc1cnc(NC(=O)[C@H](CC2CCOCC2)n2cc(C(F)(F)F)ccc2=O)cn1 [Example 39, (S)—N-(5-methylpyrazin-2-yl)-2-(2-oxo-5-(trifluoromethyl)pyridin-1(2H)-yl)-3-(tetrahydro-2H-pyran-4-yl)propanamide]		> 100
Cn1ccc(NC(=O)[C@H](CC2CCOCC2)n2cc(C(F)(F)F)ccc2=O)n1 [Example 40, (S)—N-(1-methyl-1H-pyrazol-3-yl)-2-(2-oxo-5-(trifluoromethyl)pyridin-1(2H)-yl)-3-(tetrahydro-2H-pyran-4-yl)propanamide]	121	54
Cc1ccc(NC(=O)[C@H](CC2CCOCC2)n2ccc(C(F)(F)F)cc2=O)nc1 [Example 41, (S)—N-(5-methylpyridin-2-yl)-2-(2-oxo-4-(trifluoromethyl)pyridin-1(2H)-yl)-3-(tetrahydro-2H-pyran-4-yl)propanamide]		> 100
Cc1cnc(NC(=O)[C@H](CC2CCOCC2)n2ccc(C(F)(F)F)cc2=O)cn1 [Example 42, (S)—N-(5-methylpyrazin-2-yl)-2-(2-oxo-4-(trifluoromethyl)pyridin-1(2H)-yl)-3-(tetrahydro-2H-pyran-4-yl)propanamide]		> 100
Cn1ccc(NC(=O)[C@H](CC2CCOCC2)n2ccc(C(F)(F)F)cc2=O)n1 [Example 43, (S)—N-(1-methyl-1H-pyrazol-3-yl)-2-(2-oxo-4-(trifluoromethyl)pyridin-1(2H)-yl)-3-(tetrahydro-2H-pyran-4-yl)propanamide]		> 100
